Values of other authors, collected in US20250073171A1, “DRUG DELIVERY SYSTEM FOR THE TREATMENT OF FEMALE SEXUAL INTEREST AND AROUSAL DISORDER” (Freya Pharma Solutions Holding B.V., priority 2023, published 2025).

Assays:
[1] = molecular target: albumin (Homo sapiens, UniProt P02768); details: bloodstream
[2] = molecular target: T1, SHBG (Homo sapiens, UniProt P04278); details: bloodstream
T1 sequence (P04278 30-402): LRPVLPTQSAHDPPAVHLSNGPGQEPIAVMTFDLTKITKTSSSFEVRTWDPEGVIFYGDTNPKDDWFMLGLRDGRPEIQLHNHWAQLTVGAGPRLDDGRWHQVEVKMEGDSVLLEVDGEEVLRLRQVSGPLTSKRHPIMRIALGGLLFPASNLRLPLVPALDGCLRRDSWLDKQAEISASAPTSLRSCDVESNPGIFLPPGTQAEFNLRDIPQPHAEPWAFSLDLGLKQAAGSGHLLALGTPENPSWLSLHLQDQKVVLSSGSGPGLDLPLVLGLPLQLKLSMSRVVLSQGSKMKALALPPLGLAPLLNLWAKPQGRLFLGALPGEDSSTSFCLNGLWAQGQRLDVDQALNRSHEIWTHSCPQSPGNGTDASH

albumin, sequence (P02768 25-609): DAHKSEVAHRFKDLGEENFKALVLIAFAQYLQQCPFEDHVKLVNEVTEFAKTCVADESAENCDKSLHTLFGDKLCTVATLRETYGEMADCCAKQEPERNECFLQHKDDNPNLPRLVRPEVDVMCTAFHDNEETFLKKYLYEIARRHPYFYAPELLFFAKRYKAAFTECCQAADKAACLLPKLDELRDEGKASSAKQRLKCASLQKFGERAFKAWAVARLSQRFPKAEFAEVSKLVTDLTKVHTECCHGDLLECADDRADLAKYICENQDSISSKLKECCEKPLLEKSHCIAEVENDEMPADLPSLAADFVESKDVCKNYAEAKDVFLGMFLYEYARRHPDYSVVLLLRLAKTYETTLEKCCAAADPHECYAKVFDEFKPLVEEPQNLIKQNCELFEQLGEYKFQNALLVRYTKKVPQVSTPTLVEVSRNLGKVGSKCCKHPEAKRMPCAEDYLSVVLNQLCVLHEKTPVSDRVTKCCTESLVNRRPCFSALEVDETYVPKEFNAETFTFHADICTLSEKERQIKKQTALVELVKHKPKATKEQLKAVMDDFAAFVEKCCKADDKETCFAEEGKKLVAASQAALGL

C[C@]12CC[C@H]3[C@@H](CCC4=CC(=O)CC[C@@]43C)[C@@H]1CC[C@@H]2O [testosterone, 17-[beta]-hydroxyandrost-4-en-3-one]
albumin-bound testosterone, percentage of total testosterone [1]: 30-40% | SHBG-bound testosterone, percentage of total testosterone [2]: 60-70% | free testosterone, percentage of total testosterone (bloodstream): 1-2% | T1/2 of free testosterone (metabolism of free testosterone): approximately 10 min
